ChEMBL document CHEMBL4257449, “New N-(2-phenyl-4-oxo-1,3-thiazolidin-3-yl)-1,2-benzothiazole-3-carboxamides and acetamides as antimicrobial agents” (2017)
In brackets after ≈: the same amount, converted by molar mass.

What follows are compounds tested on Penicillium ochrochloron (assay: Antifungal activity against Penicillium ochrochloron ATCC 9112 after 72 hrs by serial dilution method). Settings: ATCC 9112, 72 h.
Format: functional

MIC	Compound
208 µM (≈ 81.1 µg/mL)	O=C(NN1C(=O)CSC1c1cccc(Cl)c1)c1nsc2ccccc12 (centres undefined)
107 µM (≈ 40 µg/mL)	O=C(NN1C(=O)CSC1c1cccc(F)c1)c1nsc2ccccc12 (centres undefined)

The compounds below were run on Bacillus cereus (assay: Antibacterial activity against Bacillus cereus after 24 hrs by microdilution method). Settings: not given.
Format: functional

MIC	Compound
102 µM (≈ 39.8 µg/mL)	O=C(NN1C(=O)CSC1c1cccc(Cl)c1)c1nsc2ccccc12 (centres undefined)
107 µM (≈ 40 µg/mL)	O=C(NN1C(=O)CSC1c1cccc(F)c1)c1nsc2ccccc12 (centres undefined)

These compounds were tested on Bacillus cereus (assay: Bactericidal activity against Bacillus cereus incubated for 24 hrs followed by serial sub-cultivation and measured after 24 hrs by microdilution method). Settings: not given.
Format: functional

Compound	MBC99.5
O=C(NN1C(=O)CSC1c1cccc(Cl)c1)c1nsc2ccccc12 (centres undefined)	38.4 ×10⁻² umol/ml
O=C(NN1C(=O)CSC1c1cccc(F)c1)c1nsc2ccccc12 (centres undefined)	40.2 ×10⁻² umol/ml

The compounds below were run on Micrococcus flavus (assay: Antibacterial activity against Micrococcus flavus ATCC 10240 after 24 hrs by microdilution method). Settings: ATCC 10240, 24 h.
Format: functional

MIC	Compound
205 µM (≈ 79.9 µg/mL)	O=C(NN1C(=O)CSC1c1cccc(Cl)c1)c1nsc2ccccc12 (centres undefined)
214 µM (≈ 79.9 µg/mL)	O=C(NN1C(=O)CSC1c1cccc(F)c1)c1nsc2ccccc12 (centres undefined)

The compounds below were run on Micrococcus flavus (assay: Bactericidal activity against Micrococcus flavus ATCC 10240 incubated for 24 hrs followed by serial sub-cultivation and measured after 24 hrs by microdilution method). Settings: not given.
Format: functional

Compound	MBC99.5
O=C(NN1C(=O)CSC1c1cccc(Cl)c1)c1nsc2ccccc12 (centres undefined)	38.4 ×10⁻² umol/ml
O=C(NN1C(=O)CSC1c1cccc(F)c1)c1nsc2ccccc12 (centres undefined)	40.2 ×10⁻² umol/ml

Each compound was assayed on Staphylococcus aureus (assay: Antibacterial activity against Staphylococcus aureus ATCC 6538 after 24 hrs by microdilution method). Settings: ATCC 6538, 24 h.
Format: functional

MIC	Compound
102 µM (≈ 39.8 µg/mL)	O=C(NN1C(=O)CSC1c1cccc(Cl)c1)c1nsc2ccccc12 (centres undefined)
107 µM (≈ 40 µg/mL)	O=C(NN1C(=O)CSC1c1cccc(F)c1)c1nsc2ccccc12 (centres undefined)

The compounds below were run on Staphylococcus aureus (assay: Bactericidal activity against Staphylococcus aureus ATCC 6538 incubated for 24 hrs followed by serial sub-cultivation and measured after 24 hrs by microdilution method). Settings: not given.
Format: functional

Compound	MBC99.5
O=C(NN1C(=O)CSC1c1cccc(Cl)c1)c1nsc2ccccc12 (centres undefined)	20.5 ×10⁻² umol/ml
O=C(NN1C(=O)CSC1c1cccc(F)c1)c1nsc2ccccc12 (centres undefined)	21.4 ×10⁻² umol/ml

The compounds below were run on Listeria monocytogenes (assay: Antibacterial activity against Listeria monocytogenes NCTC 7973 after 24 hrs by microdilution method). Settings: NCTC 7973, 24 h.
Format: functional

MIC	Compound
20.5 µM (≈ 7.99 µg/mL)	O=C(NN1C(=O)CSC1c1cccc(Cl)c1)c1nsc2ccccc12 (centres undefined)
214 µM (≈ 79.9 µg/mL)	O=C(NN1C(=O)CSC1c1cccc(F)c1)c1nsc2ccccc12 (centres undefined)

These compounds were tested on Listeria monocytogenes (assay: Bactericidal activity against Listeria monocytogenes NCTC 7973 incubated for 24 hrs followed by serial sub-cultivation and measured after 24 hrs by microdilution method). Settings: not given.
Format: functional

Compound	MBC99.5
O=C(NN1C(=O)CSC1c1cccc(Cl)c1)c1nsc2ccccc12 (centres undefined)	3.84 ×10⁻² umol/ml
O=C(NN1C(=O)CSC1c1cccc(F)c1)c1nsc2ccccc12 (centres undefined)	40.2 ×10⁻² umol/ml

What follows are compounds tested on Escherichia coli (assay: Antibacterial activity against Escherichia coli ATCC 35210 after 24 hrs by microdilution method). Settings: ATCC 35210, 24 h.
Format: functional

MIC	Compound
102 µM (≈ 39.8 µg/mL)	O=C(NN1C(=O)CSC1c1cccc(Cl)c1)c1nsc2ccccc12 (centres undefined)
160 µM (≈ 59.7 µg/mL)	O=C(NN1C(=O)CSC1c1cccc(F)c1)c1nsc2ccccc12 (centres undefined)

What follows are compounds tested on Escherichia coli (assay: Bactericidal activity against Escherichia coli ATCC 35210 incubated for 24 hrs followed by serial sub-cultivation and measured after 24 hrs by microdilution method). Settings: not given.
Format: functional

Compound	MBC99.5
O=C(NN1C(=O)CSC1c1cccc(Cl)c1)c1nsc2ccccc12 (centres undefined)	20.5 ×10⁻² umol/ml
O=C(NN1C(=O)CSC1c1cccc(F)c1)c1nsc2ccccc12 (centres undefined)	21.4 ×10⁻² umol/ml

Each compound was assayed on Enterobacter cloacae (assay: Antibacterial activity against Enterobacter cloacae after 24 hrs by microdilution method). Settings: not given.
Format: functional

MIC	Compound
205 µM (≈ 79.9 µg/mL)	O=C(NN1C(=O)CSC1c1cccc(Cl)c1)c1nsc2ccccc12 (centres undefined)
214 µM (≈ 79.9 µg/mL)	O=C(NN1C(=O)CSC1c1cccc(F)c1)c1nsc2ccccc12 (centres undefined)

Each compound was assayed on Enterobacter cloacae (assay: Bactericidal activity against Enterobacter cloacae incubated for 24 hrs followed by serial sub-cultivation and measured after 24 hrs by microdilution method). Settings: not given.
Format: functional

Compound	MBC99.5
O=C(NN1C(=O)CSC1c1cccc(Cl)c1)c1nsc2ccccc12 (centres undefined)	38.4 ×10⁻² umol/ml
O=C(NN1C(=O)CSC1c1cccc(F)c1)c1nsc2ccccc12 (centres undefined)	21.4 ×10⁻² umol/ml

The compounds below were run on Pseudomonas aeruginosa (assay: Antibacterial activity against Pseudomonas aeruginosa ATCC 27853 after 24 hrs by microdilution method). Settings: ATCC 27853, 24 h.
Format: functional

MIC	Compound
205 µM (≈ 79.9 µg/mL)	O=C(NN1C(=O)CSC1c1cccc(Cl)c1)c1nsc2ccccc12 (centres undefined)
214 µM (≈ 79.9 µg/mL)	O=C(NN1C(=O)CSC1c1cccc(F)c1)c1nsc2ccccc12 (centres undefined)

Each compound was assayed on Pseudomonas aeruginosa (assay: Bactericidal activity against Pseudomonas aeruginosa ATCC 27853 incubated for 24 hrs followed by serial sub-cultivation and measured after 24 hrs by microdilution method). Settings: not given.
Format: functional

Compound	MBC99.5
O=C(NN1C(=O)CSC1c1cccc(Cl)c1)c1nsc2ccccc12 (centres undefined)	38.4 ×10⁻² umol/ml
O=C(NN1C(=O)CSC1c1cccc(F)c1)c1nsc2ccccc12 (centres undefined)	80.4 ×10⁻² umol/ml

These compounds were tested on Salmonella typhimurium (assay: Antibacterial activity against Salmonella typhimurium ATCC 13311 after 24 hrs by microdilution method). Settings: Salmonella enterica, ATCC 13311, 24 h.
Format: functional, Salmonella enterica subsp. enterica serovar Typhimurium

MIC	Compound
205 µM (≈ 79.9 µg/mL)	O=C(NN1C(=O)CSC1c1cccc(Cl)c1)c1nsc2ccccc12 (centres undefined)
214 µM (≈ 79.9 µg/mL)	O=C(NN1C(=O)CSC1c1cccc(F)c1)c1nsc2ccccc12 (centres undefined)

What follows are compounds tested on Salmonella typhimurium (assay: Bactericidal activity against Salmonella typhimurium ATCC 13311 incubated for 24 hrs followed by serial sub-cultivation and measured after 24 hrs by microdilution method). Settings: not given.
Format: functional, Salmonella enterica subsp. enterica serovar Typhimurium

Compound	MBC99.5
O=C(NN1C(=O)CSC1c1cccc(Cl)c1)c1nsc2ccccc12 (centres undefined)	38.4 ×10⁻² umol/ml
O=C(NN1C(=O)CSC1c1cccc(F)c1)c1nsc2ccccc12 (centres undefined)	40.2 ×10⁻² umol/ml

The compounds below were run on Aspergillus versicolor (assay: Antifungal activity against Aspergillus versicolor ATCC 11730 after 72 hrs by serial dilution method). Settings: ATCC 11730, 72 h.
Format: functional

MIC	Compound
51 µM (≈ 19.9 µg/mL)	O=C(NN1C(=O)CSC1c1cccc(Cl)c1)c1nsc2ccccc12 (centres undefined)
54 µM (≈ 20.2 µg/mL)	O=C(NN1C(=O)CSC1c1cccc(F)c1)c1nsc2ccccc12 (centres undefined)

Each compound was assayed on Aspergillus fumigatus (assay: Antifungal activity against Aspergillus fumigatus after 72 hrs by serial dilution method). Settings: not given.
Format: functional

MIC	Compound
384 µM (≈ 150 µg/mL)	O=C(NN1C(=O)CSC1c1cccc(Cl)c1)c1nsc2ccccc12 (centres undefined)
54 µM (≈ 20.2 µg/mL)	O=C(NN1C(=O)CSC1c1cccc(F)c1)c1nsc2ccccc12 (centres undefined)

Each compound was assayed on Aspergillus fumigatus (assay: Fungicidal activity against Aspergillus fumigatus incubated for 72 hrs followed by serial sub-cultivation for 72 hrs and measured after 72 hrs by serial dilution method). Settings: not given.
Format: functional

Compound	MFC99.5
O=C(NN1C(=O)CSC1c1cccc(Cl)c1)c1nsc2ccccc12 (centres undefined)	76.8 ×10⁻² umol/ml
O=C(NN1C(=O)CSC1c1cccc(F)c1)c1nsc2ccccc12 (centres undefined)	10.7 ×10⁻² umol/ml

These compounds were tested on Aspergillus versicolor (assay: Fungicidal activity against Aspergillus versicolor ATCC 11730 incubated for 72 hrs followed by serial sub-cultivation for 72 hrs and measured after 72 hrs by serial dilution method). Settings: not given.
Format: functional

Compound	MFC99.5
O=C(NN1C(=O)CSC1c1cccc(Cl)c1)c1nsc2ccccc12 (centres undefined)	10.2 ×10⁻² umol/ml
O=C(NN1C(=O)CSC1c1cccc(F)c1)c1nsc2ccccc12 (centres undefined)	10.7 ×10⁻² umol/ml

These compounds were tested on Aspergillus ochraceus (assay: Antifungal activity against Aspergillus ochraceus ATCC 12066 after 72 hrs by serial dilution method). Settings: ATCC 12066, 72 h.
Format: functional

MIC	Compound
102 µM (≈ 39.8 µg/mL)	O=C(NN1C(=O)CSC1c1cccc(Cl)c1)c1nsc2ccccc12 (centres undefined)
292 µM (≈ 109 µg/mL)	O=C(NN1C(=O)CSC1c1cccc(F)c1)c1nsc2ccccc12 (centres undefined)

The compounds below were run on Aspergillus ochraceus (assay: Fungicidal activity against Aspergillus ochraceus ATCC 12066 incubated for 72 hrs followed by serial sub-cultivation for 72 hrs and measured after 72 hrs by serial dilution method). Settings: not given.
Format: functional

Compound	MFC99.5
O=C(NN1C(=O)CSC1c1cccc(Cl)c1)c1nsc2ccccc12 (centres undefined)	20.5 ×10⁻² umol/ml
O=C(NN1C(=O)CSC1c1cccc(F)c1)c1nsc2ccccc12 (centres undefined)	40.2 ×10⁻² umol/ml

Each compound was assayed on Aspergillus niger (assay: Antifungal activity against Aspergillus niger ATCC 6275 after 72 hrs by serial dilution method). Settings: ATCC 6275, 72 h.
Format: functional

MIC	Compound
77 µM (≈ 30 µg/mL)	O=C(NN1C(=O)CSC1c1cccc(Cl)c1)c1nsc2ccccc12 (centres undefined)
107 µM (≈ 40 µg/mL)	O=C(NN1C(=O)CSC1c1cccc(F)c1)c1nsc2ccccc12 (centres undefined)

The compounds below were run on Aspergillus niger (assay: Fungicidal activity against Aspergillus niger ATCC 6275 incubated for 72 hrs followed by serial sub-cultivation for 72 hrs and measured after 72 hrs by serial dilution method). Settings: not given.
Format: functional

Compound	MFC99.5
O=C(NN1C(=O)CSC1c1cccc(Cl)c1)c1nsc2ccccc12 (centres undefined)	10.2 ×10⁻² umol/ml
O=C(NN1C(=O)CSC1c1cccc(F)c1)c1nsc2ccccc12 (centres undefined)	21.4 ×10⁻² umol/ml

What follows are compounds tested on Trichoderma viride (assay: Antifungal activity against Trichoderma viride IAM 5061 after 72 hrs by serial dilution method). Settings: IAM 5061, 72 h.
Format: functional

MIC	Compound
51 µM (≈ 19.9 µg/mL)	O=C(NN1C(=O)CSC1c1cccc(Cl)c1)c1nsc2ccccc12 (centres undefined)
54 µM (≈ 20.2 µg/mL)	O=C(NN1C(=O)CSC1c1cccc(F)c1)c1nsc2ccccc12 (centres undefined)

Each compound was assayed on Trichoderma viride (assay: Fungicidal activity against Trichoderma viride IAM 5061 incubated for 72 hrs followed by serial sub-cultivation for 72 hrs and measured after 72 hrs by serial dilution method). Settings: not given.
Format: functional

Compound	MFC99.5
O=C(NN1C(=O)CSC1c1cccc(Cl)c1)c1nsc2ccccc12 (centres undefined)	10.2 ×10⁻² umol/ml
O=C(NN1C(=O)CSC1c1cccc(F)c1)c1nsc2ccccc12 (centres undefined)	10.7 ×10⁻² umol/ml

These compounds were tested on Talaromyces funiculosus (assay: Antifungal activity against Penicillium funiculosum ATCC 36839 after 72 hrs by serial dilution method). Settings: ATCC 36839, 72 h.
Format: functional

MIC	Compound
102 µM (≈ 39.8 µg/mL)	O=C(NN1C(=O)CSC1c1cccc(Cl)c1)c1nsc2ccccc12 (centres undefined)
107 µM (≈ 40 µg/mL)	O=C(NN1C(=O)CSC1c1cccc(F)c1)c1nsc2ccccc12 (centres undefined)

The compounds below were run on Talaromyces funiculosus (assay: Fungicidal activity against Penicillium funiculosum ATCC 36839 incubated for 72 hrs followed by serial sub-cultivation for 72 hrs and measured after 72 hrs by serial dilution method). Settings: not given.
Format: functional

Compound	MFC99.5
O=C(NN1C(=O)CSC1c1cccc(Cl)c1)c1nsc2ccccc12 (centres undefined)	20.5 ×10⁻² umol/ml
O=C(NN1C(=O)CSC1c1cccc(F)c1)c1nsc2ccccc12 (centres undefined)	21.4 ×10⁻² umol/ml

The compounds below were run on Penicillium ochrochloron (assay: Fungicidal activity against Penicillium ochrochloron ATCC 9112 incubated for 72 hrs followed by serial sub-cultivation for 72 hrs and measured after 72 hrs by serial dilution method). Settings: not given.
Format: functional

Compound	MFC99.5
O=C(NN1C(=O)CSC1c1cccc(Cl)c1)c1nsc2ccccc12 (centres undefined)	38.4 ×10⁻² umol/ml
O=C(NN1C(=O)CSC1c1cccc(F)c1)c1nsc2ccccc12 (centres undefined)	21.4 ×10⁻² umol/ml

These compounds were tested on Candida albicans (assay: Antifungal activity against Candida albicans after 72 hrs by serial dilution method). Settings: not given.
Format: functional

MIC	Compound
102 µM (≈ 39.8 µg/mL)	O=C(NN1C(=O)CSC1c1cccc(Cl)c1)c1nsc2ccccc12 (centres undefined)
107 µM (≈ 40 µg/mL)	O=C(NN1C(=O)CSC1c1cccc(F)c1)c1nsc2ccccc12 (centres undefined)

These compounds were tested on Candida albicans (assay: Fungicidal activity against Candida albicans incubated for 72 hrs followed by serial sub-cultivation for 72 hrs and measured after 72 hrs by serial dilution method). Settings: not given.
Format: functional

Compound	MFC99.5
O=C(NN1C(=O)CSC1c1cccc(Cl)c1)c1nsc2ccccc12 (centres undefined)	20.5 ×10⁻² umol/ml
O=C(NN1C(=O)CSC1c1cccc(F)c1)c1nsc2ccccc12 (centres undefined)	21.4 ×10⁻² umol/ml
